Where “and” joins values, the source holds several entries; their conditions need not be identical. Equal entries are not always repeated. Toxic doses and inconclusive results are not listed.
System: P388 leukemia ip, CD2F1 mice, survival T/C
Assay: NCI In Vivo Anticancer Drug Screen. Data for tumor model P388 Leukemia (intraperitoneal) in CD2F1 (CDF1) mice
Settings: endpoint: median survival time, higher = longer survival
Procedure, shortened: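 Mice carrying the transplanted tumor received test compound or vehicle. Survival was recorded in each group, and the value is the treated-group measurement divided by that of the vehicle-treated control group.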

[1] = dose: 50.0 mg/kg/injection, schedule: Q01DX009 (ip), vehicle: saline with Tween-80
[2] = dose: 100.0 mg/kg/injection, schedule: Q01DX009 (ip), vehicle: saline with Tween-80
[3] = dose: 200.0 mg/kg/injection, schedule: Q01DX009 (ip), vehicle: saline with Tween-80
[4] = dose: 6.25 mg/kg/injection, schedule: Q01DX005 (ip), vehicle: saline with Tween-80
[5] = dose: 12.5 mg/kg/injection, schedule: Q01DX005 (ip), vehicle: saline with Tween-80
[6] = dose: 25.0 mg/kg/injection, schedule: Q01DX005 (ip), vehicle: saline with Tween-80
[7] = dose: 50.0 mg/kg/injection, schedule: Q01DX005 (ip), vehicle: saline with Tween-80
[8] = dose: 12.5 mg/kg/injection, schedule: Q01DX009 (ip), vehicle: Klucel (hydroxypropylcellulose) (HPC)
[9] = dose: 25.0 mg/kg/injection, schedule: Q01DX009 (ip), vehicle: Klucel (hydroxypropylcellulose) (HPC)
[10] = dose: 50.0 mg/kg/injection, schedule: Q01DX009 (ip), vehicle: Klucel (hydroxypropylcellulose) (HPC)
[11] = dose: 100.0 mg/kg/injection, schedule: Q01DX005 (ip), vehicle: saline with Tween-80
[12] = dose: 200.0 mg/kg/injection, schedule: Q01DX005 (ip), vehicle: saline with Tween-80
[13] = dose: 60.0 mg/kg/injection, schedule: Q01DX005 (ip), vehicle: saline with Tween-80
[14] = dose: 120.0 mg/kg/injection, schedule: Q01DX005 (ip), vehicle: saline with Tween-80
[15] = dose: 240.0 mg/kg/injection, schedule: Q01DX005 (ip), vehicle: saline with Tween-80
[16] = dose: 50.0 mg/kg/injection, schedule: Q01DX009 (ip), vehicle: saline
[17] = dose: 100.0 mg/kg/injection, schedule: Q01DX009 (ip), vehicle: saline
[18] = dose: 200.0 mg/kg/injection, schedule: Q01DX009 (ip), vehicle: saline
[19] = dose: 12.5 mg/kg/injection, schedule: Q01DX009 (ip), vehicle: saline
[20] = dose: 25.0 mg/kg/injection, schedule: Q01DX009 (ip), vehicle: saline

## COc1cc(C2=NCCc3cc4c(cc32)OCO4)cc(OC)c1OC
dose: 50.0 mg/kg/injection, schedule: Q01DX005 (ip), vehicle: saline
  T/C: 100 % of control and 101 % of control
dose: 100.0 mg/kg/injection, schedule: Q01DX005 (ip), vehicle: saline
  T/C: 105 % of control and 118 % of control
dose: 200.0 mg/kg/injection, schedule: Q01DX005 (ip), vehicle: saline
  T/C: 152 % of control

## CC1CCP(c2ccccc2)C1 (stereo not given)
dose: 100.0 mg/kg/injection, schedule: Q01DX001 (ip), vehicle: saline with Tween-80
  T/C: 105 % of control
dose: 200.0 mg/kg/injection, schedule: Q01DX001 (ip), vehicle: saline with Tween-80
  T/C: 116 % of control

## CCOC(=O)C1N=C(OCC)C(C)N=C1OCC (stereo not given)
dose: 60.0 mg/kg/injection, schedule: Q01DX005 (ip), vehicle: saline
  T/C: 101 % of control
dose: 120.0 mg/kg/injection, schedule: Q01DX005 (ip), vehicle: saline
  T/C: 102 % of control
dose: 240.0 mg/kg/injection, schedule: Q01DX005 (ip), vehicle: saline
  T/C: 100 % of control

## CCC(=O)Nc1ccc(C(=O)C(C)O[N+](=O)[O-])cc1 (stereo not given)
dose: 25.0 mg/kg/injection, schedule: Q01DX009 (ip), vehicle: saline with Tween-80
  T/C: 98 % of control
[1]
  T/C: 99 % of control
[2]
  T/C: 100 % of control

## CN(C)c1ccc(/C=C/c2ccc3ccccc3[n+]2C)cc1
dose: 1.0 mg/kg/injection, schedule: Q01DX009 (ip), vehicle: saline sonified
  T/C: 123 % of control
dose: 1.5 mg/kg/injection, schedule: Q01DX009 (ip), vehicle: saline sonified
  T/C: 123 % of control
dose: 2.3 mg/kg/injection, schedule: Q01DX009 (ip), vehicle: saline sonified
  T/C: 119 % of control
dose: 6.25 mg/kg/injection, schedule: Q04DX003 (ip), vehicle: saline sonified
  T/C: 100 % of control
dose: 12.5 mg/kg/injection, schedule: Q04DX003 (ip), vehicle: saline sonified
  T/C: 109 % of control
dose: 25.0 mg/kg/injection, schedule: Q04DX003 (ip), vehicle: saline sonified
  T/C: 113 % of control

## CCOC(=O)NC(=S)Nc1cccs1
[1]
  T/C: 91 % of control
[2]
  T/C: 100 % of control
[3]
  T/C: 101 % of control

## CC1(C)OC(=O)C(=Cc2ccc(-c3cc(C(F)(F)F)cc(C(F)(F)F)c3)o2)C(=O)O1
dose: 50.0 mg/kg/injection, schedule: Q01DX005 (ip), vehicle: Klucel (hydroxypropylcellulose) (HPC)
  T/C: 104 % of control
dose: 100.0 mg/kg/injection, schedule: Q01DX005 (ip), vehicle: Klucel (hydroxypropylcellulose) (HPC)
  T/C: 100 % of control
dose: 200.0 mg/kg/injection, schedule: Q01DX005 (ip), vehicle: Klucel (hydroxypropylcellulose) (HPC)
  T/C: 92 % of control

## S=C(NCCCN1CCN(CCCNC(=S)Nc2c3ccccc3nc3ccccc23)CC1)Nc1c2ccccc2nc2ccccc12
[4]
  T/C: 98 % of control
[5]
  T/C: 100 % of control and 110 % of control
[6]
  T/C: 114 % of control and 116 % of control
[7]
  T/C: 119 % of control and 120 % of control

## Cc1ccc(N=C2C(=O)Nc3ccccc32)cc1
dose: 50.0 mg/kg/injection, schedule: Q04DX002 (ip), vehicle: saline with Tween-80
  T/C: 108 % of control
dose: 100.0 mg/kg/injection, schedule: Q04DX002 (ip), vehicle: saline with Tween-80
  T/C: 105 % of control
dose: 200.0 mg/kg/injection, schedule: Q04DX002 (ip), vehicle: saline with Tween-80
  T/C: 104 % of control

## Cn1c(C=O)cnc1[N+](=O)[O-]
[8]
  T/C: 108 % of control
[9]
  T/C: 111 % of control
[10]
  T/C: 111 % of control and 115 % of control

## Nc1ccccc1C(=O)NCCc1c[nH]c2ccccc12
[7]
  T/C: 99 % of control
[11]
  T/C: 107 % of control
[12]
  T/C: 107 % of control

## CCCCn1c2c(c3ccccc3c1=O)C(=O)c1ccccc1-2
[7]
  T/C: 92 % of control
[11]
  T/C: 91 % of control
[12]
  T/C: 88 % of control

## CCSC(=Nc1nc2ccc([N+](=O)[O-])cc2s1)SCC
dose: 6.25 mg/kg/injection, schedule: Q01DX009 (ip), vehicle: Klucel (hydroxypropylcellulose) (HPC)
  T/C: 104 % of control
[8]
  T/C: 111 % of control
[9]
  T/C: 98 % of control

## CCCCCC(=O)Nc1ncc([N+](=O)[O-])s1
[10]
  T/C: 116 % of control
dose: 100.0 mg/kg/injection, schedule: Q01DX009 (ip), vehicle: Klucel (hydroxypropylcellulose) (HPC)
  T/C: 113 % of control
dose: 200.0 mg/kg/injection, schedule: Q01DX009 (ip), vehicle: Klucel (hydroxypropylcellulose) (HPC)
  T/C: 98 % of control

## CCOC(=O)CN1C(=S)N(c2ccc(C)cc2)C(=Nc2ccc(C)cc2)C1=Nc1ccc(C)cc1
dose: 50.0 mg/kg/injection, schedule: Q01DX005 (ip), vehicle: Klucel + Tween-80
  T/C: 96 % of control
dose: 100.0 mg/kg/injection, schedule: Q01DX005 (ip), vehicle: Klucel + Tween-80
  T/C: 91 % of control
dose: 200.0 mg/kg/injection, schedule: Q01DX005 (ip), vehicle: Klucel + Tween-80
  T/C: 90 % of control

## CCOc1c(N=Nc2ccccc2[N+](=O)[O-])c(C)nn1C(=S)S
dose: 60.0 mg/kg/injection, schedule: Q01DX005 (ip), vehicle: Klucel + Tween-80
  T/C: 103 % of control
dose: 120.0 mg/kg/injection, schedule: Q01DX005 (ip), vehicle: Klucel + Tween-80
  T/C: 97 % of control
dose: 240.0 mg/kg/injection, schedule: Q01DX005 (ip), vehicle: Klucel + Tween-80
  T/C: 92 % of control

## O=C(Nc1ccccc1C(F)(F)F)N(CCO)C1CCCCC1
[13]
  T/C: 103 % of control
[14]
  T/C: 103 % of control
[15]
  T/C: 103 % of control

## COc1cc(CC2c3cc(OC)c(OC)cc3CC[N+]2(C)C)c(Oc2cc(CC3c4cc(OC)c(OC)cc4CC[N+]3(C)C)ccc2OC)cc1OC (stereo not given)
dose: 1.56 mg/kg/injection, schedule: Q04DX003 (ip), vehicle: water
  T/C: 109 % of control
dose: 3.13 mg/kg/injection, schedule: Q04DX003 (ip), vehicle: water
  T/C: 103 % of control

## CCN(CC)CC1(CC(=O)N2c3ccccc3Sc3ccccc32)COC1
[16]
  T/C: 107 % of control
[17]
  T/C: 100 % of control
[18]
  T/C: 105 % of control

## CCNCCNc1ccc(NCCNCC)c2c1C(=O)c1ccccc1C2=O
dose: 4.0 mg/kg/injection, schedule: Q01DX009 (ip), vehicle: acid diluted with saline
  T/C: 157 % of control
dose: 8.0 mg/kg/injection, schedule: Q01DX009 (ip), vehicle: acid diluted with saline
  T/C: 174 % of control
dose: 12.5 mg/kg/injection, schedule: Q01DX009 (ip), vehicle: other
  T/C: 168 % of control
dose: 16.0 mg/kg/injection, schedule: Q01DX009 (ip), vehicle: acid diluted with saline
  T/C: 166 % of control

## O=S(=O)(O/C(=C(\OS(=O)(=O)C(F)(F)C(F)(F)C(F)(F)C(F)(F)F)c1ccccc1)c1ccccc1)C(F)(F)C(F)(F)C(F)(F)C(F)(F)F
[13]
  T/C: 99 % of control
[14]
  T/C: 107 % of control
[15]
  T/C: 99 % of control

## Clc1ccc2c(c1)Oc1ccccc1C=N2
[1]
  T/C: 107 % of control
[2]
  T/C: 98 % of control
[3]
  T/C: 96 % of control

## COC(=O)/N=C1\C(=O)C=CC(O)=C1C(N)=O
[4]
  T/C: 90 % of control
[5]
  T/C: 94 % of control
[6]
  T/C: 92 % of control

## CCOC(=O)C1=Nc2cccc3c(O)ccc1c23
[7]
  T/C: 113 % of control
[11]
  T/C: 109 % of control
[12]
  T/C: 111 % of control

## CCCCCCC[CH2][Sn]([S][Sn]([CH2]CCCCCCC)([c]1ccccc1)[c]1ccccc1)([c]1ccccc1)[c]1ccccc1
dose: 6.25 mg/kg/injection, schedule: Q01DX009 (ip), vehicle: saline
  T/C: 101 % of control
[19]
  T/C: 98 % of control
[20]
  T/C: 101 % of control
[18]
  T/C: 86 % of control

## CN(C)P(=O)(N(C)C)N1CCC1
[16]
  T/C: 104 % of control
[17]
  T/C: 112 % of control

## CC1(C)N=C(N)N=C(N)N1c1ccc(OCCNS(=O)(=O)c2cccc(S(=O)(=O)F)c2)c(Cl)c1
[19]
  T/C: 152 % of control
[20]
  T/C: 157 % of control
[16]
  T/C: 168 % of control
[2]
  T/C: 154 % of control

Reference: PubChem BioAssay AID330 (DTP/NCI, 2004)
